Data set [1] relates to SK-OV-3. The experiment in a line: Antiinvasive activity against human SKOV3 cells assessed as inhibition of LPA-stimulated cell invasion at 100 ng/ml by matrigel based assay. It is filed as functional.
For data set [2], the species on record is Homo sapiens. The data set is described as follows: Inhibition of rho-mediated gene transcription in human PC3 cells transfected with Galpha12QL activator at 100 uM incubated for 19 hrs by SRE.L-firefly luciferase based dual luciferase reporter gene assay relative to control. It is filed as cell-based. For orientation: Reporter assays use an easily measured gene product as a stand-in for the process of interest.

Data set [3] has as its system PC-3. The experiment in a line: Cytotoxicity against human PC3 cells assessed as inhibition of cell cell viability at 100 uM incubated for 19 hrs by WST1 based assay relative to control. It is filed as functional. The following applies: for inhibition at 100 µM: PC-3, 19 h.
A short description of data set [4]: Inhibition of rho-mediated gene transcription in human PC3 cells transfected with Galpha12QL activator incubated for 19 hrs by SRE.L-firefly luciferase based dual luciferase reporter gene assay. It is filed as cell-based. As to conditions: PC-3, 19 h.
Data set [5] is filed under the species Homo sapiens. The experiment in a line: Inhibition of rho-mediated gene transcription in human PC3 cells transfected with Galpha12QL activator at 10 uM incubated for 19 hrs by SRE.L-firefly luciferase based dual luciferase reporter gene assay relative to control. It is filed as cell-based.
For data set [6], the system named is PC-3. The data set is described as follows: Cytotoxicity against human PC3 cells assessed as inhibition of cell cell viability at 10 uM incubated for 19 hrs by WST1 based assay relative to control. It is filed as functional. The following applies: for inhibition at 10 µM: PC-3, 19 h. Background: Tetrazolium dyes change colour on reduction, which living cells bring about.

Data set [7] can be described thus: Inhibition of nonspecific gene transcription in human PC3 cells transfected with Galpha12QL activator at 10 uM incubated for 19 hrs by PRL-TK luciferase based dual luciferase reporter gene assay. It is filed as cell-based, PC-3.
Data set [8] in a line: Inhibition of nonspecific gene transcription in human PC3 cells transfected with Galpha12QL activator at 100 uM incubated for 19 hrs by PRL-TK luciferase based dual luciferase reporter gene assay. It is filed as cell-based, PC-3.
Data set [9] concerns PC-3. The experiment in a line: Antiproliferative activity against human PC3 cells assessed as inhibition of LPA-stimulated cell proliferation incubated for 27 hrs by BrdUrd incorporation assay. It is filed as functional, cell-based.
For data set [10], the system named is A-375. The experiment in a line: Antiproliferative activity against human A375 cells assessed as inhibition of LPA-stimulated cell proliferation at 0.3 mmol/L and measured on day 8 by WST1 based assay. It is filed as functional.
Data set [11] has as its system SK-MEL-147. The data set is described as follows: Antiproliferative activity against human SK-MEL-147 cells assessed as inhibition of LPA-stimulated cell proliferation at 0.3 mmol/L and measured on day 8 by WST1 based assay. It is filed as functional.
Data set [12] concerns SK-MEL-28. The data set is described as follows: Antiproliferative activity against human SK-MEL-28 cells assessed as inhibition of LPA-stimulated cell proliferation at 0.3 mmol/L and measured on day 8 by WST1 based assay. It is filed as functional.
Data set [13] concerns PC-3. The experiment in a line: Antiinvasive activity against human PC3 cells assessed as inhibition of LPA-stimulated cell invasion at 3 umol/L by matrigel based assay. It is filed as functional.
Data set [14] deals with WI-38. The experiment in a line: Antiproliferative activity against human WI38 cells assessed as inhibition of LPA-stimulated cell proliferation at 0.3 mmol/L and measured on day 8 by WST1 based assay. The following applies: wi-38, 300 µM.
For data set [15], the species on record is Homo sapiens. The experiment in a line: Antiproliferative activity against human A375M2 cells assessed as inhibition of LPA-stimulated cell proliferation at 0.3 mmol/L and measured on day 8 by WST1 based assay. It is filed as functional.

Activity calls are given as the source filed them. The calls are words filed in the database; no cut-off is given here.

In the case of `CC(=O)O[C@H]1C(=O)[C@@]2(C)[C@H]([C@H](OC(=O)c3ccccc3)[C@]3(O)C[C@H](OC(=O)[C@H](O)[C@@H](NC(=O)c4ccccc4)c4ccccc4)C(C)=C1C3(C)C)[C@]1(OC(C)=O)CO[C@@H]1C[C@@H]2O`, the inhibition entry in data set [1] was “Active”.

With `O=C(CONC(=O)c1ccccc1)Nc1ccc(Cl)cc1`, the inhibition entry in data set [2], in data set [3], in [5] and in data set [6] was “inactive” each time. In addition, in data set [4], the half-maximal inhibitory concentration (IC50) was more than 100 µM.

Consider `O=C(CCCCNC(=O)c1cc(C(F)(F)F)cc(C(F)(F)F)c1)Nc1ccc(Cl)cc1`, for which the inhibition came to 12% in data set [2] and 0% in [5]. The same compound came in with an inhibition at 19 h, 10 µM in data set [7] of 0%. In addition, in [3], the inhibition at 100 µM came to 0%. This compound also returned a concentration for half-maximal inhibition (IC50) in [4] of more than 100 µM. Moreover, in data set [6], the inhibition at 10 µM was 0%. In [8], this compound gave an inhibition at 19 h, 100 µM of 10%.

Turning to `O=C(CONC(=O)c1cccc(C(F)(F)F)c1)Nc1ccc(Cl)cc1`, the inhibition in data set [2] was found to be 86%; in [5], 25%. This compound also returned an inhibition at 19 h, 10 µM in data set [7] of 5%. In [4], this compound yielded an IC50 of 27 µM. This compound also showed an inhibition at 19 h, 100 µM in data set [8] of 19%.

For the compound `CN(CCNC(=O)c1cc(C(F)(F)F)cc(C(F)(F)F)c1)C(=O)c1ccc(Cl)cc1`, the figures for the inhibition in data set [2] and in [5] were 25% and 20%, respectively. The inhibition at 19 h, 10 µM in data set [7] is 0%. The inhibition at 100 µM in data set [3] was found to be 0%. In data set [4], this compound gave a 50% inhibitory concentration (IC50) of more than 1000 µM. Further, the inhibition at 10 µM in data set [6] came out at 0%. The compound further returned an inhibition at 19 h, 100 µM in data set [8] of 10%.

In the case of `O=C(CONC(=O)c1ccc(C(F)(F)F)cc1)Nc1ccc(Cl)cc1`, the inhibition in [2] is 91%; in [5], 26%. The same compound gave an inhibition at 19 h, 10 µM in [7] of 6%. The same compound displayed an IC50 in data set [4] of 29 µM. Moreover, the inhibition at 19 h, 100 µM in data set [8] was 0%.

Turning to `CC(ONC(=O)c1cc(C(F)(F)F)cc(C(F)(F)F)c1)C(=O)Nc1ccc(Cl)cc1` (configuration not stated), the inhibition entry in data set [9], in [10], in data set [11], in data set [12], in data set [13] and in data set [15] was “Active” throughout. For the same compound, the inhibition at 19 h, 10 µM in data set [7] came to 48%. The compound further registered an inhibition in [5] of 74%. The inhibition at 10 µM in [6] turned out to be 44%. The Activity entry in [14] is recorded as “Non-Toxic”.

`O=C(Nc1ccccc1C(=O)Nc1ccc(Cl)cc1)c1cc(C(F)(F)F)cc(C(F)(F)F)c1`: the inhibition at 19 h, 10 µM in [7] is 0%.

In the case of `O=C(CC1CCCCN1C(=O)c1cc(C(F)(F)F)cc(C(F)(F)F)c1)Nc1ccc(Cl)cc1` (configuration not stated), the inhibition at 19 h, 10 µM in data set [7] stood at 0%.

Regarding `O=C(CONC(=O)c1cc(C(F)(F)F)cc(C(F)(F)F)c1)Nc1ccccc1`, the values for the inhibition in data set [2] and in data set [5] were 65% and 13%, respectively. The compound also returned an inhibition at 19 h, 10 µM in [7] of 33%. This compound also came in with an IC50 in [4] of 36 µM. For the same compound, the inhibition at 19 h, 100 µM in data set [8] came out at 59%.

For the compound `O=C(CCNC(=O)c1cc(C(F)(F)F)cc(C(F)(F)F)c1)Nc1ccc(Cl)cc1`, the inhibition in [2] was 64 to 66%; in [5] it was 38 to 44%. Besides, the inhibition at 100 µM in data set [3] lay in the range of 6 to 10%. This compound yielded an IC50 in data set [4] of 25 to 38 µM. The compound also showed an inhibition at 19 h, 100 µM in data set [8] of 15 to 22%.

As usually defined, the inhibition is the change of the read-out against control, counted positive when it falls. Broadly, the IC50 is the concentration that inhibits the measured activity by half. Lower therefore signals inhibition by little substance.

For the origin of these results see ChEMBL document CHEMBL4418480, “Methods and compositions for modulating rho-mediated gene transcription” (2012).
